Reference: patent publication US6906205B2, “Spiro and dispiro 1,2,4-trioxolane antimalarials” (Medicines for Malaria Venture MMV, priority 2002, dated 2005)
Values after ≈ are worked out from the molar mass of the structure shown.

Columns and labels:
[1] = test system: ANKA strain of P. berghei; test: single dose STI in vivo screen in infected mice; design: species or system Plasmodium berghei; settings: for Activity (%) po / Activity (%) sc / Activity (%) SSVpo: percent reduction in parasitemia day 3 post-infection, mice; for Activity (%) po / Survival (days) po: single 10 mg/kg po in 3% ethanol and 7% Tween 80; for Activity (%) sc / Survival (days) sc: single 10 mg/kg sc in 3% ethanol and 7% Tween 80; for Survival (days) po / Survival (days) sc / Survival (days) SSVpo: untreated control 5.6 ± 0.3; for Activity (%) SSVpo: single po dose in standard suspending vehicle (SSV); for Survival (days) SSVpo: single po dose in SSV
Procedure, shortened: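 Groups of 3-5 Moro SPF or NMRI mice infected with the ANKA strain of P. berghei received a single dose of trioxolane on day one post-infection. The compound was given in 3% ethanol and 7% Tween 80 or in SSV (0.5% w/v CMC, 0.5% v/v benzyl alcohol, 0.4% v/v Tween 80, 0.9% w/v sodium chloride in water). Antimalarial activity was scored as percent reduction in parasitemia on day three and as survival time versus untreated controls. Survival to day 30 counted as cure.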

[2] = test system: Schistosoma mansoni 21-day-old schistosomules; test: effect on 21-day-old schistosomules in mice; assay type: in vivo; settings: single 200 mg/kg per os, female mice
Method: All groups were killed 4 weeks after treatment and the liver and intestine were removed and separated. The liver and intestine were compressed and alive male and female worms could be seen and counted. The effect of the compounds was evaluated by mean total and female worm burden.

[3] = test system: P. falciparum K1 strain (Thailand resistant to chloroquine); test: semiautomated microdilution assay, [3H]-hypoxanthine incorporation, K1 strain; assay type: cell-based, Plasmodium falciparum; settings: K1 strain, 72 h incubation
Procedure, shortened: (§1)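 IC50 values come from logit regression of semiautomated microdilution data obtained on intraerythrocytic parasites drawn from asynchronous cultures.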

[4] = test system: Schistosoma mansoni adult schistosomes (49-day-old); test: effect on adult schistosomes (49-day-old) in mice; assay type: in vivo; settings: single 400 mg/kg per os
Method: Mice were infected with 100 Schistosoma mansoni cercariae […]. Each group was treated per os with OZ compounds at single doses of 200, 400, and 600 mg/kg. […] All groups were killed 4 weeks after treatment and the liver and intestine were removed and separated. The liver and intestine were compressed and alive male and female worms could be seen and counted.

[5] = test system: P. falciparum NF54 strain (sensitive to standard antimalarials); test: semiautomated microdilution assay, [3H]-hypoxanthine incorporation, NF54 strain; assay type: cell-based, Plasmodium falciparum; settings: NF54 strain, 72 h incubation
Procedure, shortened: as §1

CON=C1CC2CC3(CC2C1)OOC1(O3)C2CC3CC(C2)CC1C3 (centres unmarked) [OZ37]
Activity (%) po [1]: 83% | Activity (%) sc [1]: 99.98% | Survival (days) po [1]: 6.7 days | Survival (days) sc [1]: 13 days | % reduction of schistosomule growth at day 21 after per os application of 200 mg/kg, FWR (%) [2]: 53% | % reduction of schistosomule growth at day 21 after per os application of 200 mg/kg, TWR (%) [2]: 63%

OC1(c2ccc(F)cc2)CCC2(CC1)OOC1(O2)C2CC3CC(C2)CC1C3 (centres unmarked) [OZ76]
IC50 (ng/ml) K1 [3]: 1.7 ng/mL (≈ 0.00454 µM) | % reduction of adult worms growth at day 49 after per os application of 400 mg/kg, TWR (%) [4]: 32% | adult worms at day 49, per os 400 mg/kg, DEAD WORM (%) [4]: 0% | Activity (%) po [1]: 49% | Activity (%) sc [1]: 94% | Survival (days) po [1]: 6.3 days | Survival (days) sc [1]: 8.0 days | IC50 (ng/ml) NF54 [5]: 3.0 ng/mL (≈ 0.00801 µM)

c1ccc(C2(c3ccccn3)OOC3(O2)C2CC4CC(C2)CC3C4)nc1 (centres unmarked) [OZ81]
IC50 (ng/ml) K1 [3]: >100/>100 ng/ml | % reduction of adult worms growth at day 49 after per os application of 400 mg/kg, TWR (%) [4]: 28% | adult worms at day 49, per os 400 mg/kg, DEAD WORM (%) [4]: 0% | Activity (%) po [1]: 0/NA/0% | Activity (%) sc [1]: 0/NA/0% | Survival (days) po [1]: 5.3 days | Survival (days) sc [1]: 5.0 days | IC50 (ng/ml) NF54 [5]: >100/>100 ng/ml

CCS(=O)(=O)N1CCC2(CC1)OOC1(O2)C2CC3CC(C2)CC1C3 (centres unmarked) [OZ79]
IC50 (ng/ml) K1 [3]: 0.38 ng/mL (≈ 0.00106 µM) | % reduction of adult worms growth at day 49 after per os application of 400 mg/kg, TWR (%) [4]: 4% | adult worms at day 49, per os 400 mg/kg, DEAD WORM (%) [4]: 0% | Activity (%) po [1]: 85% | Activity (%) sc [1]: 99.94% | Survival (days) po [1]: 7.0 days | Survival (days) sc [1]: 9.3 days | IC50 (ng/ml) NF54 [5]: 0.81 ng/mL (≈ 0.00227 µM)

OC12CC3CC(C1)C1(OOC4(CCC5(CC4)OCCO5)O1)C(C3)C2 (centres unmarked) [OZ153]
IC50 (ng/ml) K1 [3]: 7.7 ng/mL (≈ 0.0228 µM) | % reduction of adult worms growth at day 49 after per os application of 400 mg/kg, TWR (%) [4]: No alive/dead worm* | Activity (%) po ([1]; 10 mg/kg): 15% | Activity (%) sc ([1]; 10 mg/kg): 20% | Activity (%) SSVpo [1]: 23% | Survival (days) po [1]: 6.3 days | Survival (days) sc ([1]; 10 mg/kg): 6.3 days | Survival (days) SSVpo [1]: 7.0 days | IC50 (ng/ml) NF54 [5]: 19 ng/mL (≈ 0.0561 µM)

O=C([C@H]1CC[C@]2(CC1)OOC1(O2)C2CC3CC(C2)CC1C3)N1CCN(c2ccccc2)CC1 (some centres unmarked) [OZ140]
IC50 (ng/ml) K1 [3]: 5.9 ng/mL (≈ 0.013 µM) | % reduction of adult worms growth at day 49 after per os application of 400 mg/kg, TWR (%) [4]: 0% | adult worms at day 49, per os 400 mg/kg, DEAD WORM (%) [4]: 3% | Activity (%) po [1]: 0% | Activity (%) sc [1]: 60% | Activity (%) SSVpo [1]: 8% | Survival (days) po [1]: 6.0 days | Survival (days) sc [1]: 7.0 days | Survival (days) SSVpo [1]: 6.3 days | IC50 (ng/ml) NF54 [5]: 8.2 ng/mL (≈ 0.0181 µM)

O=C(O)C1CCC2(CC1)OOC1(O2)C2CC3CC(C2)CC1C3 (centres unmarked) [OZ72]
IC50 (ng/ml) K1 [3]: 15 ng/mL (≈ 0.0486 µM) | adult worms at day 49, per os 400 mg/kg, DEAD WORM (%) [4]: 10% | Activity (%) po ([1]; 10 mg/kg): 97% | Activity (%) sc ([1]; 10 mg/kg): 95% | Survival (days) po ([1]; 10 mg/kg): 7.7 days | Survival (days) sc ([1]; 10 mg/kg): 6.7 days | IC50 (ng/ml) NF54 [5]: 13 ng/mL (≈ 0.0422 µM)

CC1(C)COC2(CCC3(CC2)OOC2(O3)C3CCCC2CCC3)OC1 (centres unmarked) [OZ68]
IC50 (ng/ml) K1 [3]: 41 ng/mL (≈ 0.116 µM) | % reduction of adult worms growth at day 49 after per os application of 400 mg/kg, TWR (%) [4]: 17% | adult worms at day 49, per os 400 mg/kg, DEAD WORM (%) [4]: 0% | Activity (%) po [1]: 1% | Activity (%) sc [1]: 6% | Survival (days) po [1]: 5.0 days | Survival (days) sc [1]: 5.3 days | IC50 (ng/ml) NF54 [5]: 49 ng/mL (≈ 0.139 µM)

C1=C(c2ccccc2)CCC2(C1)OOC1(O2)C2CC3CC(C2)CC1C3 (centres unmarked) [OZ226]
IC50 (ng/ml) K1 [3]: 4.0/4.0 ng/ml | % reduction of adult worms growth at day 49 after per os application of 400 mg/kg, TWR (%) [4]: 52% | adult worms at day 49, per os 400 mg/kg, DEAD WORM (%) [4]: 0% | Activity (%) po [1]: 0% | Activity (%) sc [1]: 99.92% | Activity (%) SSVpo [1]: 0% | Survival (days) po [1]: 5.0 days | Survival (days) sc [1]: 11.0 days | Survival (days) SSVpo [1]: 5.3 days | IC50 (ng/ml) NF54 [5]: 4.0/4.0 ng/ml
